Experimental data as given in patent US7851617B2, “Indole derivatives” (Mitsubishi Tanabe Pharma Corporation, priority 2006, dated 2010).
Like-named read-outs stand apart in the source and are kept apart here.

What was measured:
Sprague-Dawley (SD) rats = assay: Urinary glucose excretion test in rats; format: in vivo, rat; details: male SD rats, 30 mg/kg by oral gavage, urine collected for 24 hours, daily amount of glucose excreted per individual
Procedure: Compounds described in the above examples were used for the Urinary glucose excretion test in rats.
6-week-old male Sprague-Dawley (SD) rats were housed in individual metabolic cages with free access to food and water from 2 days prior to the experiment. On the morning of the experiment, rats were administered vehicle (0.2% carboxymethyl cellulose solution containing 0.2% Tween80) or test compounds (30 mg/kg) by oral gavage at a volume of 10 ml/kg. Then, urine of the rat was collected for 24 hours, and the urine volume was measured. Subsequently, the glucose concentration in urine was quantified using the enzymatic assay kit and the daily amount of glucose excreted in urine per individual was calculated.

human SGLT2 = molecular target: T1, human SGLT2 (Homo sapiens, UniProt P31639); assay: Assay for SGLT2 inhibition (14C-AMG uptake); format: cell-based
T1 construct: expressed in transfected cells; host or cells: CHOK1 cells (selected with Geneticin)
T1 sequence (P31639 1-672): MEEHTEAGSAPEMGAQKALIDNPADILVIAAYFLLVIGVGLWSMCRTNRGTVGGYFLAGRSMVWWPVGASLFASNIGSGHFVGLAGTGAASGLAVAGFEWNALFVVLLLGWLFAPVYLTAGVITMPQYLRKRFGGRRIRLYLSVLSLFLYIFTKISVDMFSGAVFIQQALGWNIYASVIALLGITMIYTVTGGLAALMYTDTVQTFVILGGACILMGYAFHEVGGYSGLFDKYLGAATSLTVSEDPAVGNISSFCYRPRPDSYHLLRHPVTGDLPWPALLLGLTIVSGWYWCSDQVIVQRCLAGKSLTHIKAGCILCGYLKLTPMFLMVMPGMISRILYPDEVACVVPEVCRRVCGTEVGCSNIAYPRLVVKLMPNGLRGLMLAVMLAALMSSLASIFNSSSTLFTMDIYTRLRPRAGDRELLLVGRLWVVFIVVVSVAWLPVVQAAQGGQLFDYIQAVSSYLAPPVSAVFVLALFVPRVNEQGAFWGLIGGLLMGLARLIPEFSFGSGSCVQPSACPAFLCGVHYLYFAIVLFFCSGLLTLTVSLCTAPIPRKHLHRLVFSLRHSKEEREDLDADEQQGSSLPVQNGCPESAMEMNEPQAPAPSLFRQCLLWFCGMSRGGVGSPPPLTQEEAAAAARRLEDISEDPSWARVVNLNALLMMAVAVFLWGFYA
Procedure: Compounds described in the above examples were used for the SGLT2 inhibition assay. CHOK1 cells expressing human SGLT2 were seeded in 24-well plates at a density of 400,000 cells/well in F-12 nutrient mixture (Ham's F-12) containing 10% fetal bovine serum, 400 μg/ml Geneticin, 50 units/ml sodium penicillin G (Gibco-BRL) and 50 μg/ml streptomycin sulfate. After 2 days of culture at 37° C. in a humidified atmosphere containing 5% CO2, cells were washed once with the assay buffer (137 mM NaCl, 5 mM KCl, 1 mM CaCl2, 1 mM MgCl2, 50 mM Hepes, and 20 mM Tris, pH 7.4) and incubated with 250 μl of the buffer containing test compounds for 10 min at 37° C. Test compounds were dissolved in DMSO. The final concentration of DMSO was 0.5%. The transport reaction was initiated by addition of 50 μl [^14C]-methyl-α-D-glucopyranoside (^14C-AMG) solution (final concentration, 0.5 mM). After incubation for 2 hours at 37° C., the uptake was stopped by aspiration of the incubation mixture, the cells were washed three times with ice-cold PBS. Then, cells were solubilized with 0.3 N NaOH and aliquots were taken for determination of radioactivity by a liquid scintillation counter. Nonspecific AMG uptake was defined as that which occurred in the presence of 100 μM of phlorizin, a specific inhibitor of sodium-dependent glucose cotransporter. Specific uptake was normalized for the protein concentrations measured by the method of Bradford. The 50% inhibitory concentration (IC50) values were calculated from dose-response curves by least square method.

[1] = CHOK1 cells expressing human SGLT2, 14C-AMG uptake, 2 hours at 37° C., read-out: IC50

Compound	Urinary glucose (Sprague-Dawley (SD) rats)	IC50 (human SGLT2; [1]) [nM]	IC50 (human SGLT2) [nM]
OC[C@H]1O[C@@H](n2cc(Cc3ccc(C4CC4)cc3)c3c(Cl)cc(F)cc32)[C@H](O)[C@@H](O)[C@@H]1O [Example 4, 4-Chloro-3-(4-cyclopropylphenylmethyl)-6-fluoro-1-(β-D-gluco-pyranosyl) indole]	C (2000 mg>C)	3.6	
OC[C@H]1O[C@@H](n2cc(Cc3ccc(C4CC4)cc3)c3c(F)cccc32)[C@H](O)[C@@H](O)[C@@H]1O [Example 1, 3-(4-Cyclopropylphenylmethyl)-4-fluoro-1-(β-D-gluco-pyranosyl)indole]	B (2400 mg>B≧2000 mg)	1.9	
OC[C@H]1O[C@@H](n2cc(Cc3ccc(C4CC4)cc3)c3c(F)cc(F)cc32)[C@H](O)[C@@H](O)[C@@H]1O [Example 3, 3-(4-Cyclopropylphenylmethyl)-4,6-difluoro-1-(β-D-gluco-pyranosyl) indole]	B (2400 mg>B≧2000 mg)	2.8	
OC[C@H]1O[C@@H](n2cc(Cc3ccc(C4CC4)cc3)c3c(Cl)cccc32)[C@H](O)[C@@H](O)[C@@H]1O [Example 2, 4-Chloro-3-(4-cyclopropylphenyl-methyl)-1-(β-D-glucopyranosyl)indole]	A (A≧2400 mg)		2.3
